Assay [1] has as its system rats. As to conditions: cited from earlier work.
Assay [2] relates to rats. The following applies: cited from earlier work. This is another data set of the same source.
For assay [3], the system named is rats. As to conditions: cited from earlier work. The source holds these as a separate data set.
The conditions of assay [4]: pretreatment; cited from earlier work.
For assay [5] the following is noted: in vivo; cited from earlier work.
For assay [6] the following is noted: in vivo; cited from earlier work. This is another data set of the same source.
The conditions of assay [7]: in vivo; cited from earlier work. This is another data set of the same source.
In the next assay the target is T1, human CRFR1 (Homo sapiens, UniProt P34998).
T1 construct: The full-length CRFR1 gene was obtained by PCR using human brain cDNA library; expressed in transfected cells; pcDNA3.1 expression vector; membrane fraction used
T1 sequence (P34998 24-415): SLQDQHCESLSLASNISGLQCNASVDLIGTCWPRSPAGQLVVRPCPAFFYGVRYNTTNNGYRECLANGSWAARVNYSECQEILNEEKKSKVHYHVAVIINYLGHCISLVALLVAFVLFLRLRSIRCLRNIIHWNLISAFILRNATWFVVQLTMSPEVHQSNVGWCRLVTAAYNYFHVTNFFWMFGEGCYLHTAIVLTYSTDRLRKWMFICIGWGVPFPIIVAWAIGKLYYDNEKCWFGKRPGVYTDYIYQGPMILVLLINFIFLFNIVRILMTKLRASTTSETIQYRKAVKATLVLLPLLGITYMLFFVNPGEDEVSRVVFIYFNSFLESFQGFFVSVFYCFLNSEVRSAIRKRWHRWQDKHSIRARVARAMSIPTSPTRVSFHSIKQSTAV
Briefly: CRFR1 binding test (SPA competition with 125I-CRF, membrane fraction of CRFR1-expressing HEK293 cells). The following applies: 100 pM 125I-CRF, room temperature, read-out: CRF1 receptor binding capacity IC50. On the procedure: The binding capacities of the compounds of the invention for CRF1 receptor (CRFR1) were evaluated.
The membrane fraction of human CRFR1 high-expressing cells was used as the material for a CRFR1 binding experiment. The CRFR1-expressing cells were prepared in the following manner. The full-length CRFR1 gene was obtained by PCR using human brain cDNA library (QuickClone™ Clontech). The obtained DNA fragment was inserted into a cloning vector and the nucleotide sequence was confirmed. cDNA having the proper nucleotide sequence was linked to an expression vector (pcDNA3.1™, Invitrogen). The CRFR1 expression vector was introduced into HEK293 cell, and the resistant cells which proliferated in culture medium containing G418 (1 mg/ml) were cloned by the limiting dilution method. Out of the cloned cells, cells having high binding affinity between the membrane fraction per unit of protein and sauvagine were selected according to the following binding experiment. And the selected cells were used for the experiments.
The cloned cells obtained in (1) were collected and suspended in ice-cooled membrane buffer (50 mM Tris-HCl, 5 mM MgCl2, 2 mM EGTA, 1 mM DTT, protease inhibitor cocktail (COMPLETE™, Roche Diagnostics) pH 7.3), and then the cells were disrupted with a Polytron ([…]) while cooling on ice (level 5, 10 seconds, 2-5 times, ice-cooling) and then centrifuged (2,000 rpm, 5 minutes, 4° C.), after which the supernatant was collected. Membrane buffer was added to the precipitate, and the mixture was subjected to Polytron treatment (same conditions as above) and centrifuged (same conditions as above), and the obtained supernatant was collected and combined with the previous supernatant. This was centrifuged (13,000 rpm (18,000×g), 30 minutes, 4° C.) to prepare cell membranes. The precipitated cell membranes were suspended in membrane buffer and disrupted with a Polytron (level 5, 10 seconds, 3-5 times, ice-cooling) to prepare a dispersed suspension. The protein assay was performed.
The following method (1) or (2) was performed for use as the cell membrane fraction.
(1) The above dispersed suspension was diluted with membrane buffer containing 0.1% BSA to a protein concentration of 200 μg/ml, for use as the cell membrane fraction
(2) The above dispersed suspension was frozen for preservation, and if needed, thawed, re-dispersed and diluted for used as the cell membrane fraction.
A binding competition experiment with CRF was conducted by the SPA (GE Healthcare) method using a 96-well plate. A mixture of 5 μg of the cell membrane fraction protein, 1 mg of SPA beads and 100 pM ^125I-CRF (Perkin Elmer) was allowed to stand at room temperature for at least 2 hours in the presence of a test compound, and the radioactivity of each well after centrifugation (1,200 rpm (260×g), 5 minutes, room temperature) was measured with a TopCount (registered trademark; Perkin Elmer).
The radioactivity with addition of a 4,000-fold excess of non-radioactive sauvagine as the nonspecific binding was subtracted from each value, and the resulting value was expressed as a percentage (% of control), with 100% as the radioactivity without addition of the test compound (control). The IC50 value was calculated from a binding inhibition curve drawn with test compound concentration on the horizontal axis and % (% of control) on the vertical axis.

The test system of a further assay is Balb/c mice. Briefly: Light/dark box test in mice (anxiolytic effect). Type of assay: in vivo. As to the method: The light/dark box test in mice was carried out according to a modified method of Belzung C., Misslin R., Vogel E. et al. (Reference; Behavioural effects of the benzodiazepine receptor partial agonist RO16-6028 in mice, Psychopharmacology, 97, 388-391, 1989). The test apparatus used was a light/dark box comprising a covered black acrylic box (dark box; 15×10×20 cm), an uncovered white acrylic box (light box; 15×20×20 cm) and a black acrylic tunnel (10×7×4.5 cm) which connects dark box and light box and enables a mouse to freely move back and forth between the dark box and light box. In this test apparatus, however, a transparent acrylic polymer was used for the front side (20×20 cm) and back side (20×20 cm) of the light box to allow observation of the behavior. After setting illumination so that the light intensity of the floor of the light box was 150 Lux, 5-week-old male Balb/c mice (purchased from Nihon Charles River) were introduced into the dark box at the beginning of the test. For the test, the tested compound was suspended in 5% dimethylsulfoxide, 5% Cremopor EL and 90% physiological saline and orally administered to the test animals one hour prior to the start of the test.
The time spent in the light box was measured as an index of the anxiolytic effect, with “spend in the light box” defined as the state in which all limbs of the mice were on the floor of the light box. […] The statistical significance between the vehicle-treated group and the test compound-treated groups was analyzed by one way analysis of variance followed by Dunnett multiple comparison when multiple doses were set for the same test, and by the Mann-Whitney U test when only one dose was set.

The conditions of assay [8]: in vivo; cited from earlier work. The source holds these as a separate data set.
Assay [9] has as its system rats. The following applies: cited from earlier work. The source holds these as a separate data set.
The subject of the next assay is high-anxiety rats. As to conditions: particularly in high-anxiety rats; cited from earlier work.
The test system of a further assay is rat. The following applies: cited from earlier work.
The subject of the next assay is Tg2576 mice. The following applies: cited from earlier work.
For assay [10] the following is noted: in vivo; cited from earlier work. The source holds these as a separate data set.
The conditions of assay [11]: in vivo; cited from earlier work. This is another data set of the same source.
The conditions of assay [12]: in vivo; cited from earlier work. The source holds these as a separate data set.
A further assay concerns IBS patients. The following applies: cited from earlier work.
A further assay has as its system ethanol withdrawal rats. As to conditions: cited from earlier work.
The conditions of assay [13]: in vivo; cited from earlier work. This is another data set of the same source.
For assay [14] the following is noted: in vivo; cited from earlier work. The source holds these as a separate data set.

pIC50: −log10 of the molar value.

With `CCCCN(CC)c1nc(C)nc2c1c(C)cn2-c1c(C)cc(C)cc1C` [CP-154526], in the assay with rats [1], the “anti-depressant and anti-anxiety actions” value was “exhibits anti-depressant and anti-anxiety actions”. In addition, the “recurrence of stress-elicited alcohol-seeking behavior” value in the assay on rats [2] is “inhibits”. The “recurrence of stress-elicited drug (heroin, cocaine)-seeking behavior” value with rats [3] is recorded as “inhibits”. In assay [4], the “naltrexone-induced morphine withdrawal symptoms” value was “inhibits”. Besides, in assay [5], the “gastric emptying retardation following surgery” value is “ameliorates”. The “learning disturbance following acute stress” value in assay [6] is “inhibits”.
For the compound `CCN(c1nc(C)cc(N2CC=C(c3cccc(F)c3)CC2)n1)c1ccc(C(C)C)cc1SC` [CRA1000], the “stress-related reduction in food intake” value in assay [7] is given as “inhibit”.
For the compound `COc1cc(C#N)cc(OC)c1-c1csc2c(N(CC3CC3)CC3CCOC3)c(OC)nn12` (stereo not drawn) [Example 14, 4-{7-[(Cyclopropylmethyl)(tetrahydrofuran-3-ylmethyl)amino]-6-methoxypyrazolo[5,1-b][1,3]thiazol-3-yl}-3,5-diimethoxybenzonitrile], on human CRFR1, the pIC50 (as a rule, the negative decadic logarithm of the IC50, by convention in mol/L) is 7.05. In addition, in the assay on Balb/c mice (30 mg/kg, oral administration), the “anxiolytic effect in the light/dark box test” value is “statistically significant effects”. The minimal effective dose (as a rule, the smallest amount tested that counted as effective) in the assay with Balb/c mice (Mus musculus, 1 h, minimum dose significantly prolonging time spent in the light box vs vehicle, oral, one hour prior to test) was 30 mg/kg.
For `CCCN(CCC)c1cc(C)nc2c(-c3cnc(N(C)C)cc3C)c(C)nn12` [Example R121919], in assay [8], the “ameliorating depression, depressive symptoms, anxiety” value is “effective”. Moreover, in the assay with rats [9], the anti-anxiety action entry was “exhibits an anti-anxiety action”. In addition, the stress-related sleep disorder entry in the assay on high-anxiety rats is “inhibits”.
In the case of `CCCN(CC1CC1)c1nc(C)nc(Nc2c(Cl)cc(Cl)cc2Cl)c1Cl` [NBI-27914], the “water avoidance stress-related rat catharsis” value in the assay with rat is “inhibits”. For the same compound, the “increased levels of Aβ and Aβ plaque deposition induced by stress” value in the assay with Tg2576 mice is recorded as “inhibits”. Besides, the “limbic system seizure (convulsion and epilepsy induced by CRF administration)” value in [10] is “inhibits”.
Consider `CCCCN(CC)c1nc(C)nc2c1c(C)c(C)n2-c1c(C)cc(C)cc1C` [antalarmin], for which the “stress-induced hippocampal tau phosphorylation” value in assay [11] was “inhibits”. Moreover, the “hypertension induced by intraventricular administration of CRF” value in assay [12] is recorded as “inhibits”.
For the compound α-helical CRF(9-41), in the assay on IBS patients, the “abdominal pain and anxiety” value is on record as “reduces”; the colon intestinal hyperkinesis result was “inhibits”. In addition, the anxiety behavior entry in the assay with ethanol withdrawal rats is on record as “inhibits”. The “stress-related reduction in food intake” value in assay [7] is “inhibit”. Besides, the “stress-related increase in intracerebral amyloid-β” value in [13] is “suppresses”. Besides, in assay [14], the “ischemic and excitotoxic encephalopathy” value is reported as “inhibits”.
